Three compounds from patent publication US12662458B2, “Solid forms of a compound” (Denali Therapeutics Inc., priority 2020, dated 2026) can be followed below.

Converted amounts (≈) assume the structure as drawn.

Series [1] is described as follows: Biorelevant media solubility of Forms A and C. The series is classed as physicochemical. The note with it: for Solubility / Final XRPD: 37° C. As to the method:
Biorelevant media solubility of Forms A and C were studied in water, SGF, FaSSIF, and FeSSIF at 37° C. 10-20 mg of Form A or C was weighed into 2-3 mL glass vials and media was added to achieve a solids loading of ˜5 mg/mL. Each slurry was magnetically agitated at 750-1000 rpm at 37° C., filtered via centrifugation, and the supernatant was analyzed by HPLC to determine solubility. In all cases, there was no polymorphic form change observed by XRPD analysis of the filtered solids.

The nature of series [2]: Solid form stability on storage. The series is classed as physicochemical. As to the method:
To evaluate the solid form stability, Forms A and C were stored under 25° C./60% RH (open), 40° C./75% RH (open), and 60° C. for up to 4 weeks. Samples were analyzed by XRPD, TGA, DSC, and HPLC purity.

Series [3] can be described thus: Dynamic vapor sorption (hygroscopicity). The series is classed as physicochemical. As to conditions: DVS. As to the method:
DVS analysis was carried out using a Surface Measurement System DVS Intrinsic analyzer. The instrument was calibrated with standard weights. Approximately 15-20 mg of sample was loaded into a pan for analysis. The sample was analyzed at 25° C. in 10% relative humidity (RH) steps from 0 to 95% RH (adsorption cycle) and from 95 to 0% RH (desorption cycle). The movement from one step to the next occurred either after satisfying the equilibrium criterion of 0.002% weight change (dm/dt) or, if the equilibrium criterion was not met, after ten hours.

The nature of series [4]: Slurry interconversion of Form A and Form C. The series is classed as physicochemical. As to the method:
Form A slurry converts to Form C in the presence of Form C seed. For example, Form A (10 mg) and Form C (10 mg) were stirred in saturated IPA/water and MeCN/water at temperatures ranging from 5-60° C. […] Form A could only be prepared in a location uncontaminated with Form C (e.g., locations where From C had not previously existed).

The nature of series [5]: Plasma PK in monkeys, powder in capsule. The series is classed as in vivo. As to conditions: male, cynomolgus monkey, po, 15 mg/kg, single oral 15 mg/kg; for AUC(0-t): read-out: AUC0-24 h; for Tmax: read-out: Tmax. As to the method:
Non-naïve male cynomolgus monkeys were used in this study with at least a 7-day washout period prior to dosing Animals were administered micronized Form A, unmicronized Form A, or micronized Form C powder in capsule by single oral administration at 15 mg/kg. The capsules were prepared according to the animals' body weights on dosing day. Blood samples were collected at 0.25, 0.5, 1, 2, 4, 8, 24, 48, and 72 hours post-dose.

Series [6] is described as follows: Plasma PK in rats, nanosuspension. In kind it is in vivo. As to conditions: rat, nanosuspension in deionized water, single oral 25 mg/kg. As to the method:
Wistar Han rats were administered a nanosuspension of Form A or Form C as a single oral administration at 25 mg/kg. The nanosuspensions were prepared by suspending nano-milled Form A or Form C in deionized water (2.5 mg/mL) to obtain opaque homogenous suspensions. Blood samples were collected at 0.25, 0.5, 1, 2, 4, 8, 24, 48, and 72 hours post-dose. Concentrations of Compound I in plasma samples were determined by LC/MS/MS.

The nature of series [7]: Plasma PK in monkeys, nanosuspension. In kind it is in vivo. The note with it: male, cynomolgus monkey, po, 25 mg/kg, nanosuspension in deionized water, single oral 25 mg/kg. As to the method:
Non-naïve male cynomolgus monkeys were used in this study with at least a 7-day washout period prior to dosing Animals were administered a nanosuspension of Form C as a single oral administration at 25 mg/kg. The nanosuspension was prepared by suspending nano-milled Form C in deionized water (5 mg/mL) to obtain an opaque homogenous suspension. Blood samples were collected at 0.25, 0.5, 1, 2, 4, 8, 24, 48, and 72 hours post-dose. Concentrations of Compound I in plasma samples were determined by LC/MS/MS.
A separate study was performed for a nanosuspension of Form A.

Series [8] can be described thus: Storage stability of amorphous Form D. The series is classed as physicochemical. As to the method:
Form A was kept in an oven at 150° C. until all solids melted. The melt was kept at 150° C. for 5 minutes and was then taken out of the oven and cooled to room temperature.

In series [9] the test system is ISR pathway (H4 ATF4-NLuc cell line). In words: ATF4 Nano Luciferase reporter integrated stress response (ISR) assay. The series is classed as cell-based. The note with it: Homo sapiens; H4 ATF4-NLuc (clone 17) cells, 50 um sodium arsenite 6 hours, luminescence. The source says: Cellular stress leads to activation of the integrated stress response pathway through one of four eukaryotic initiation factor 2α kinases and halts global translation, while allowing for the translation of select transcripts like ATF4 (activating transcription factor 4) that are important for the response to cellular stress. During normal conditions, small open reading frames (ORFs) in the 5′ UTR of ATF4 occupy the ribosome and prevent translation of the coding sequence of ATF4. During stress conditions however, the ribosome scans past these upstream ORFs and preferentially begins translation at the coding sequence of ATF4. In this way, the translation, and thus protein level of ATF4 is a readout of ISR pathway activation. Thus, a fusion of the uORFs and the beginning of the coding sequence of ATF to a common cellular reporter like nano-luciferase allows for a sensitive and high-throughput readout of ISR pathway activity.
Compound I, or any of its forms described herein, may be tested in the following assay. […] We utilized this cell line to generate an integrated stress response (ISR) assay to evaluate the activity of ISR pathway inhibitors via luminescence readout. […]

With `O=C(COc1ccc(Cl)cc1)NC12CC(c3nnc([C@H]4C[C@@H](OC(F)(F)F)C4)o3)(C1)C2` (single isomer, unassigned) [Form A, 2-(4-chlorophenoxy)-N-[3-[5-[cis-3-(trifluoromethoxy)cyclobutyl]-1,3,4-oxadiazol-2-yl]-1-bicyclo[1.1.1]pentanyl]acetamide], the Solubility in [1] (FaSSIF) stood at 25 µg/mL (≈ 54.6 µM); in series [1] (FeSSIF), 44 µg/mL (≈ 96.1 µM); in series [1] (SGF), 46 µg/mL (≈ 100 µM); in series [1] (Water), 9.7 µg/mL (≈ 21.2 µM). Also, the “Final XRPD” value in series [1] (filtered solids after slurry in FaSSIF), in [1] (filtered solids after slurry in FeSSIF), in [1] (filtered solids after slurry in SGF) and in [1] (filtered solids after slurry in Water) was “Form A” throughout. In addition, in series [1] (listed as Compound I Form A), the aqueous solubility result is listed as “about 9.7 microgram/mL”. The DSC endotherm in series [2] (25° C./60% RH (open), 1 week) is 125.6 °C; in series [2] (25° C./60% RH (open), 4 week), 125.3 °C; in series [2] (40° C./75% RH (open), 1 week), 125.4 °C; in series [2] (40° C./75% RH (open), 4 week), 125.1 °C; in series [2] (60° C. (open), 1 week) it was 125.2 °C; in [2] (60° C. (open), 4 week), 125.1 °C. Also, the DSC endotherm in series [2] (Initial) amounted to 125.0 °C. In addition, the HPLC purity in [2] (25° C./60% RH (open), 1 week) is reported as 99.3%; in [2] (25° C./60% RH (open), 4 week) it was 98.8%; in [2] (40° C./75% RH (open), 1 week), 99.3%; in [2] (40° C./75% RH (open), 4 week) it was 98.7%; in [2] (60° C. (open), 1 week), 99.3%; in [2] (60° C. (open), 4 week), 98.8%. In series [2] (Initial), this compound yielded an HPLC purity of 98.5%. Further, the “TGA loss (%, to 150° C.)” value is reported as 1.8% in series [2] (25° C./60% RH (open), 1 week); 0.6% in series [2] (25° C./60% RH (open), 4 week); 0.9% in series [2] (40° C./75% RH (open), 1 week); 0.7% in series [2] (40° C./75% RH (open), 4 week); 0.7% in [2] (60° C. (open), 1 week); 0.6% in series [2] (60° C. (open), 4 week). Also, in series [2] (Initial), the “TGA loss (%, to 150° C.)” value is 0.4%. The XRPD entry is listed as “Form A” in [2] (25° C./60% RH (open), 1 week); “Form A” in series [2] (25° C./60% RH (open), 4 week); “Form A” in [2] (40° C./75% RH (open), 1 week); “Form A” in series [2] (40° C./75% RH (open), 4 week); “Form A” in series [2] (60° C. (open), 1 week); “Form A” in series [2] (60° C. (open), 4 week). Further, the XRPD entry in series [2] (Initial) is on record as “Form A”. Also, the “solid form stability (form change, weight gain, purity changes)” value in [2] (25° C./60% RH (open), 40° C./75% RH (open), 60° C., up to 4 weeks) is “No form change, weight gain, or purity changes”. In addition, the Hygroscopicity entry in [3] is given as “Non-hygroscopic”. Further, in series [3], the “weight change / form change after exposure to humidity” value is “no form change”. Moreover, the “Results (solid form after slurry)” value in [4] (ACN/water (1:2), 5 ° C., 8 day) is recorded as “Form C”; in [4] (ACN/water (1:2), 22 ° C., 8 day) it was “Form C”; in series [4] (ACN/water (1:2), 60 ° C., 6 day) it was “Form C”; in series [4] (IPA/water (1:1), 5 ° C., 8 day), “Form C”; in [4] (IPA/water (1:1), 22 ° C., 8 day), “Form C”; in series [4] (IPA/water (1:1), 60 ° C., 6 day), “Form C”. In [4] (Form A (10 mg) and Form C (10 mg) in saturated IPA/water and MeCN/water, 5-60° C., 6-8 days), the “solid form after slurry by XRPD and DSC” value was “only Form C was present”. Further, the Cmax in [5] (micronized (d90 5)) was determined as 9.8 ± 4.1 µM; in series [5] (unmicronized (d90 43)) it was 5.6 ± 0.4 µM; in series [6] (Wistar Han, po, 25 mg/kg) it was 105 ± 8 µM; in series [7], 25.4 ± 4.1 µM. The AUC(0-t) was 154 ± 44 µM·h in [5] (micronized (d90 5)); 92 ± 24 µM·h in series [5] (unmicronized (d90 43)); 1700 ± 271 µM·h in series [6] (Wistar Han, po, 25 mg/kg, read-out: AUC0-48 h); 451 ± 84 µM·h in series [7] (read-out: AUC0-24 h). Moreover, the Tmax in series [5] (micronized (d90 5)) was 8 h; in series [5] (unmicronized (d90 43)) it was 4 h; in series [6] (Wistar Han rats, read-out: Tmax), 8 h; in series [7] (read-out: Tmax), 4 h.

As to `O=C(COc1ccc(Cl)cc1)NC12CC(c3nnc([C@H]4C[C@@H](OC(F)(F)F)C4)o3)(C1)C2` [Form D, 2-(4-chlorophenoxy)-N-[3-[5-[cis-3-(trifluoromethoxy)cyclobutyl]-1,3,4-oxadiazol-2-yl]-1-bicyclo[1.1.1]pentanyl]acetamide], the “storage stability of form” value is on record as “convert to Form C” in [8] (standing at room temperature or higher (25° C.-50° C.) for several days); “stable for 7 days” in series [8] (stored at 5° C.); “converted to Form C” in series [8] (stored at RT-60° C., 7 days).

In the case of `O=C(COc1ccc(Cl)cc1)NC12CC(c3nnc([C@H]4C[C@@H](OC(F)(F)F)C4)o3)(C1)C2` [Compound I, 2-(4-chlorophenoxy)-N-[3-[5-[cis-3-(trifluoromethoxy)cyclobutyl]-1,3,4-oxadiazol-2-yl]-1-bicyclo[1.1.1]pentanyl]acetamide], the IC50 in [9] is less than 1000 nM.

The Solubility is how much of the substance goes into solution per volume. High values mean much dissolved substance, low ones little dissolved substance. As usually defined, the Cmax is the maximum level reached in the sampled fluid or tissue. Usually Tmax stands for the time at which the peak concentration occurs. As a reminder, the IC50 is the midpoint of a concentration-inhibition curve.
